# Test results: PubChem BioAssay AID2384 (Southern Research Specialized Biocontainment Screening …, 2010)
# Test system: S. typhi GFP reporter counter-screen, fluorescence, 4 h
# Assay: inhibitors in S. typhi counter-screen strain, dose response, counter-screen for PhoP regulon inhibitor project, fluorescence, 4 h (AID 2384)
row,SMILES,IC50 [µM]
1,CCOc1cccc(/C=N/NC(=O)c2cc(C3CC3)[nH]n2)c1O,127
2,O=C(CSc1ccccn1)Nc1nonc1[N+](=O)[O-],116
3,CNCCCN1c2ccccc2CCc2ccccc21,77.6
4,NC[C@@H]1O[C@H](C23CC4CC(CC(C4)C2)C3)Cc2c1ccc(O)c2O,27
5,O=C(CNCCC1=CCCCC1)Nc1ccc(N2CCCCCC2)cc1,24.7
6,c1ccc(CN2CCC(N3CCN(Cc4ccc5c(c4)OCO5)CC3)CC2)cc1,150
7,Cc1ccc(S(=O)(=O)NNc2ccccc2)cc1,89.5
8,Oc1ccc(COCc2ccccc2)c2cccnc12,29.2
9,O=C(Nc1nnc(-c2ccccn2)o1)c1cccc(Cl)c1,91.9
10,Oc1c(CN2CCCCC2)cc(Br)c2cccnc12,15.7
11,CN(C)CCCN(C(=O)CCc1ccccc1)c1nc2ccc(Br)cc2s1,32.8
12,O=C(Nc1nnc(C2COc3ccccc3O2)o1)c1ccc(F)cc1 (configuration not stated),37.8
13,CCCCCC[N+](C)(C)CC/C=C1/c2ccccc2Sc2ccc(Cl)cc21,26.2
14,O=C1C=CC(=O)N1CCCCCCN1C(=O)C=CC1=O,79.8
15,Oc1[nH]c2ccccc2c1N=NC(=S)N1CCOCC1,21.2
16,C[C@H]1COc2c(N3CCN(C)CC3)c(F)cc3c(=O)c(C(=O)O)cn1c23,0.69
17,O=C(N/N=C/c1ccccn1)c1cccs1,65.5
18,O=C(/C=C/c1ccccc1Cl)Nc1cccc(O)c1,49.8
19,c1ccc(CCN2CN(CCCN3CCOCC3)c3nc4ccccc4n3C2)cc1,128
20,Clc1ccc(C(c2ccc(Cl)cc2)n2cc[n+](CC(OCc3ccc(Cl)cc3Cl)c3ccc(Cl)cc3Cl)c2)cc1 (configuration not stated),9.7
21,c1ccc(CNc2nc(N3CCN(Cc4ccccc4)CC3)nc3ccccc23)cc1,25.4
22,CC1CC(=O)c2c(cc3c(-c4c(O)cc(O)c5c(O)c6c(cc45)OC(C)CC6=O)c(O)cc(O)c3c2O)O1 (configuration not stated),28.6
23,O=C(Cn1nc(CNc2ccc(Br)cc2)[n+]2c1CCCCC2)c1ccc([N+](=O)[O-])cc1,35
24,CCCCOc1ccc(C(=O)OC2CC(C)N(C)CC2C)cc1 (configuration not stated),26.7

row,SMILES,IC50 [µM]
1,O=C(Cc1ccc(Br)cc1)c1ccc(O)cc1O,107
2,C[N+]12CN3CN(CN(C3)C1)C2,69.8
3,CCCOc1ccc(S(=O)(=O)n2cc(F)c(=O)[nH]c2=O)cc1,139
4,CC(=O)Nc1cccc(NC(=O)Nc2ccc(F)cc2F)c1,142
5,Cc1ccc2cc(CN(CCN(C)C)C(=O)Nc3ccc(Cl)cc3)c(=O)[nH]c2c1,50.3
6,O=C(N/N=C/c1cc([N+](=O)[O-])ccc1O)c1cccc2cc[nH]c12,18.5
7,Cc1nonc1C(=O)N/N=C/c1ccc(O)cc1O,20.3
8,O=c1c(O)cccc2cc(O)c(O)c(O)c12,18.5
9,Cc1cc(OCCCCCNCCO)cc(C)c1Cl,107
10,O=C(N/N=C\c1ccc(Cl)s1)c1cccs1,90.8
11,CN(C)CC/C=C1\c2ccccc2Sc2cc(F)c(Cl)cc21,34.8
12,CCCCCCCCCCOC(=O)Cn1c(COc2ccccc2C)[n+](C)c2ccccc21,10.4
13,CCCCCCCNC(=O)C1(CC2CC(c3cccc(Br)c3)=NO2)CCNCC1 (configuration not stated),39.8
14,CCCCC(CC)CN=C(N)NC(N)=NCCCCCCN=C(N)NC(N)=NCC(CC)CCCC (configuration not stated),4.65
15,C=CCNc1ncnc2c1[nH]c1ccc(C)cc12,111
16,O=C(/C=C/c1ccccc1)c1cc(Br)ccc(=O)c1O,21.8
17,CCc1ccc(-c2nn(-c3ccccc3)cc2CSC(=N)N)cc1,19.3
18,CN1CCN(c2ccc(NC(=O)c3ccc(-c4ccc(Br)cc4)o3)cc2)CC1,19.6
19,O=[N+]([O-])c1cc(Cl)cc(/C=N/NC(=S)Nc2ccc(S(=O)(=O)N3CCOCC3)cc2)c1O,51
20,Cc1cc(C)n(-c2nc(SCCN(C)C)c3c4c(sc3n2)CCCC4)n1,37.8
21,Cc1[nH]c2ccc(C(=O)Nc3ccncc3)cc2c1C,90.8
22,O=c1[nH]cc(N=Cc2cc([N+](=O)[O-])ccc2O)c(=O)[nH]1,77.8
23,Oc1[nH]c2ccc(Br)cc2c1N=NC(=S)N1CCOCC1,33.1
